Patent US20230174556A1, “COMPOUNDS AS PROTEIN KINASE INHIBITORS” (Fochon Biosciences, Ltd., priority 2020, published 2023)

Tested on: OCI-LY10 (PI3Kδ dependent) cells
Experiment: OCI-LY10 cell proliferation assay (MTS)
Type: cell-based
Details: Homo sapiens, OCI-Ly10, 72 h, inhibition of OCI-LY10 cells proliferation, 72 h incubation, MTS readout at 490 nm
Protocol: MTS testing kit was purchased from Promega (Madison, WI, USA). The RPMI-1640, Fetal bovine serum and Penicillin-Streptomycin were purchased from BI (Biological Industries, Beit Haemek, Israel). Dimethyl sulfoxide (DMSO) was purchased from Sigma (St. Louis., MO, USA). OCI-LY10 cells were cultured in RPMI1640 supplemented with Penicillin-Streptomycin and 10% FBS.
To investigate whether a compound is able to inhibit the activity of PI3Kδ in cells, a mechanism-based assay using OCI-LY10 (PI3Kδ dependent) cells was developed. In this assay, inhibition of PI3Kδ was detected by the inhibition of OCI-LY10 cells proliferation. Cells were plated into 96-well plates at a density of 10000 cells/well. Plates were incubated at 37° C., with 5 % CO2 for 4 h. Compounds were serially diluted and added to the plates with the final compound concentrations as 10000, 3333.3, 1111.1, […], 123.5, 41.2, 13.7, 4.6 and 1.5 nM. Plates were incubated at 37° C., with 5 % CO2 for 72 h. 20 µl MTS was added into each well and the plates were incubated at 37° C., with 5 % CO2 for exactly 2 h. The absorbance was measured by a microplate reader at 490 nm. IC50 was calculated using GraphPad Prism 5.0 software.

Compound | IC50 [nM]
Cc1csc2nc([C@H](C)n3nc(-c4cnc(OC(C)C)c(C#N)c4)c4c(N)ncnc43)c(-c3cccc(F)c3)c(=O)n12 [Example 100] | 1
COc1ncc(-c2nn([C@@H](C)c3cc4scc(Cl)n4c(=O)c3-c3cccc(F)c3)c3ncnc(N)c23)cn1 [Example 104, (S)-7-(1-(4-amino-3-(2-methoxypyrimidin-5-yl)-1H-pyrazolo[3,4-d]pyrimidin-1-yl)ethyl)-3-chloro-6-(3-fluorophenyl)-5H-thiazolo[3,2-a]pyridin-5-one] | 64

Same assay, conditions: inhibition of OCI-LY10 cells proliferation, 72 h incubation, MTS readout at 490 nm

Compound | IC50 [nM]
Cc1csc2cc([C@H](C)n3nc(-c4cnc(OC(C)C)nc4)c4c(N)ncnc43)c(-c3cccc(F)c3)c(=O)n12 [Example 89, (S)-7-(1-(4-amino-3-(2-isopropoxypyrimidin-5-yl)-1H-pyrazolo[3,4-d]pyrimidin-1-yl)ethyl)-6-(3-fluorophenyl)-3-methyl-5H-thiazolo[3,2-α]pyridin-5-one] | 73
CC(C)Oc1ncc(-c2nn([C@@H](C)c3cc4scc(Cl)n4c(=O)c3-c3ccccc3)c3ncnc(N)c23)cn1 [Example 90, (S)-7-(1-(4-amino-3-(2-isopropoxypyrimidin-5-yl)-1H-pyrazolo[3,4-d]pyrimidin-1-yl)ethyl)-3-chloro-6-phenyl-5H-thiazolo[3,2-α]pyridin-5-one] | 7
CC(C)Oc1ncc(-c2nn([C@@H](C)c3cc4scc(Cl)n4c(=O)c3-c3ccccc3)c3ncnc(N)c23)cc1F [Example 94, (S)-7-(1-(4-amino-3-(5-fluoro-6-isopropoxypyridin-3-yl)-1H-pyrazolo[3,4-d]pyrimidin-1-yl)ethyl)-3-chloro-6-phenyl-5H-thiazolo[3,2-α]pyridin-5-one] | 30
Cc1csc2cc([C@H](C)n3nc(-c4cnc(OC(C)C)c(C#N)c4)c4c(N)ncnc43)c(-c3ccccc3)c(=O)n12 [Example 96, (S)-5-(4-amino-1-(1-(3-methyl-5-oxo-6-phenyl-5H-thiazolo[3,2-α]pyridin-7-yl)ethyl)-1H-pyrazolo[3,4-d]pyrimidin-3-yl)-2-isopropoxynicotinonitrile] | 21
Cc1csc2cc([C@H](C)n3nc(-c4cnc(OC(C)C)c(C#N)c4)c4c(N)ncnc43)c(-c3cccc(F)c3)c(=O)n12 [Example 97, (S)-5-(4-amino-1-(1-(6-(3-fluoropheny 1)-3-methyl-5-oxo-5H-thiazolo[3,2-α]pyridin-7-yl)ethyl)-1H-pyrazolo[3,4-d]pyrimidin-3-yl)-2-isopropoxynicotinoni trile] | 44
CC(C)Oc1ncc(-c2nn([C@@H](C)c3cc4scc(Cl)n4c(=O)c3-c3ccccc3)c3ncnc(N)c23)cc1C#N [Example 98, (S)-5-(4-amino-1-(1-(3-chloro-5-oxo-6-phenyl-5H-thiazolo[3,2-α]pyridin-7-y 1)ethyl)-1H-pyrazolo[3,4-d]pyrimidin-3-yl)-2-isopropoxynicotinonitrile] | 8
CC(C)Oc1ncc(-c2nn([C@@H](C)c3cc4scc(Cl)n4c(=O)c3-c3cccc(F)c3)c3ncnc(N)c23)cc1C#N [Example 99, (S)-5-(4-amino-1-(1-(3-chloro-6-(3-fluorophenyl)-5-oxo-5H-thiazolo[3,2-α]pyridin-7-yl)ethyl)-1H-pyrazolo[3,4-d]pyrimidin-3-yl)-2-isopropoxynicotinoni trile] | 8
Cc1csc2nc([C@H](C)n3nc(-c4ccc(OC(C)C)c(C#N)c4)c4c(N)ncnc43)c(-c3cccc(F)c3)c(=O)n12 [Example 101, (S)-5-(4-amino-1-(1-(6-(3-fluoropheny 1)-3-methyl-5-oxo-5H-thiazolo[3,2-α]pyrimidin-7-yl)ethyl)-1H-pyrazolo[3,4-d]pyrimidin-3-yl)-2-isopropoxybenzon itrile] | 18
Cc1csc2nc([C@H](C)n3nc(-c4ccc(OC(C)C)nc4)c4c(N)ncnc43)c(-c3cccc(F)c3)c(=O)n12 [Example 102, (S)-7-(1-(4-amino-3-(6-isopropoxypyridin-3-yl)-1H-pyrazolo[3,4-d]pyrimidin-1-yl)ethyl)-6-(3-fluorophenyl)-3-methyl-5H-thiazolo[3,2-α]pyrimidin-5-one] | 70
COc1ncc(-c2nn([C@@H](C)c3cc4scc(C)n4c(=O)c3-c3cccc(F)c3)c3ncnc(N)c23)cn1 [Example 103, (S)-7-(1-(4-amino-3-(2-methoxypyrimidin-5-yl)-1H-pyrazolo[3,4-d]pyrimidin-1-yl)ethyl)-6-(3-fluorophenyl)-3-met hyl-5H-thiazolo[3,2-α]pyridin-5-one] | 22
Cc1csc2nc([C@H](C)n3nc(-c4cnc(OC(C)C)c(F)c4)c4c(N)ncnc43)c(-c3cccc(F)c3)c(=O)n12 [Example 105, (S)-7-(1-(4-amino-3-(5-fluoro-6-isopropoxypyridin-3-yl)-1H-pyrazolo[3,4-d]pyrimidin-1-yl)ethyl)-6-(3-fluorophenyl)-3-methyl-5H-thiazolo[3,2-α]pyrimidin-5-one] | 70
Cc1csc2nc([C@H](C)n3nc(-c4cnc(OC(C)C)c(C#N)c4)c4c(N)ncnc43)c(-c3cccc(F)c3)c(=O)n12 [Example 106, (S)-5-(4-amino-1-(1-(6-(3-fluoropheny 1)-3-methyl-5-oxo-5H-thiazolo[3,2-α]pyrimidin-7-yl)ethyl)-1H-pyrazolo[3,4-d]pyrimidin-3-yl)-2-isopropoxynicotin onitrile] | 43
(S)-N-(5-(4-amino-1-(1-(3-methyl-5-o xo-6-phenyl-5H-thiazolo[3,2-α]pyridin -7-yl)ethyl)-1H-pyrazolo[3,4-d]pyrimi din-3-yl)-2-methoxypyridin-3-yl)meth anesulfonamide [Example 76] | 1
